IC50 data for 2 compounds are collected here from ChEMBL document CHEMBL1201862, “PubChem BioAssay data set” (2004).

Active and inactive are the calls of the source. Cut-off read from the data, not from the text of the source: actives have a measured IC50 and inactives only a lower limit.

The target of this assay is Envelope glycoprotein gp160 (Human immunodeficiency virus 1, UniProt Q6QLK5). Put plainly: inhibitors of HIV fusion peptide binding, primary screen, biochemical, uHTS, fluorescence dequenching (AID 1986).
Envelope glycoprotein gp160, sequence (Q6QLK5 whole entry, the tested form may be a part): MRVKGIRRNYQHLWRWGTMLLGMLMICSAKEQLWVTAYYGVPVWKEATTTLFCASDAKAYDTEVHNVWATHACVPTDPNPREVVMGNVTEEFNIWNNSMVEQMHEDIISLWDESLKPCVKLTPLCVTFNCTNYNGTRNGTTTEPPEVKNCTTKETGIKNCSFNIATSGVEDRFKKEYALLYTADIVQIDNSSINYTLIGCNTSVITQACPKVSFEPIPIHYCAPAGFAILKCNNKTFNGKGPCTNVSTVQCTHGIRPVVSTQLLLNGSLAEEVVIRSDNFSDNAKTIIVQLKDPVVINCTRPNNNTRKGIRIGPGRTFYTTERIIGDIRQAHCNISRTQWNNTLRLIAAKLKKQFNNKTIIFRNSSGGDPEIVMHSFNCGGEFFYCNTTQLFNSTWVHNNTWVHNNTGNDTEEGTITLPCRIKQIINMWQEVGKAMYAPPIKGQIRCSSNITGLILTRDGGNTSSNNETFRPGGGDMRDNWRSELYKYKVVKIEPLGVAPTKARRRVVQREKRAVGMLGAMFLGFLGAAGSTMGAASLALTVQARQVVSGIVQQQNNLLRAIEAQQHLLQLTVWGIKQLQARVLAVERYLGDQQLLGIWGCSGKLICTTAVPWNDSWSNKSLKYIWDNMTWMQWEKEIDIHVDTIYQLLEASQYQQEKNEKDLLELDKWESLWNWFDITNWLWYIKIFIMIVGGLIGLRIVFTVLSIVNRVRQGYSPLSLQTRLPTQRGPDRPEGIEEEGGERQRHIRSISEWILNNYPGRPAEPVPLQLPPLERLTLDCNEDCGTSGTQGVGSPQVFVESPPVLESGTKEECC

For `O=C(O)c1cc(N2N=C(C(F)(F)F)/C(=C/C=C/c3ccco3)C2=O)ccc1Cl`, the half-maximal inhibitory concentration (IC50) (as a rule, the concentration that gives 50% inhibition) is 8.25 µM (active). The result for `CCN1C(=O)/C(=C\c2ccc(-c3ccc([N+](=O)[O-])cc3OC)o2)S/C1=N\c1cccc(C(=O)O)c1` reads 29.4 µM (active).
